Here are results for 5 molecules from ChEMBL document CHEMBL4680080 (J Med Chem, 2016).

Values after ≈ are worked out from the molar mass of the structure shown.

What is called solubility is how much of the substance goes into solution per volume. The low end stands for a poorly soluble substance, the high end for a readily soluble substance.

Series [1] in a line: Stability in fistula Wistar-Han rat model assessed as drug stability in intestinal bacteria at 60 umol/kg, iv by HPLC-ES-MS/MS analysis. It is filed as ADME, organism-based, Intestine. As to conditions: in vivo, at 60 µmol/kg.
Series [2] in a line: Drug metabolism in liver of fistula Wistar-Han rat model assessed as drug recovery of taurine conjugate at 60 umol/kg, iv by HPLC-ES-MS/MS analysis. It is filed as ADME, organism-based. As to conditions: in vivo, dose 60 µmol/kg.
Series [3] is described as follows: Stability in bile of fistula Wistar-Han rat model assessed as drug recovery of unmodified compound at 60 umol/kg, iv by HPLC-ES-MS/MS analysis. It is filed as ADME, organism-based. As to conditions: at 60 µmol/kg, read-out: Drug recovery.
A short description of another series: physchem. To be noted: water.
Series [4] in a line: Drug metabolism in bile of fistula Wistar-Han rat model assessed as taurine conjugate formation at 60 umol/kg, iv by HPLC-ES-MS/MS analysis. As to conditions: in vivo, dose 60 µmol/kg. It is filed as ADME, organism-based.

For `CC[C@H]1[C@@H](O)[C@@H]2[C@H]([C@@H](O)C[C@]3(C)[C@@H]([C@H](C)CCC(=O)O)CC[C@@H]23)[C@@]2(C)CC[C@@H](O)C[C@@H]12`, the Stabilty entry in series [1] is listed as “Stable”. Besides, the Drug metabolism entry in series [2] is “Metabolite_Notdetected”. Further, in series [3], the dose excreted worked out at 50%. This molecule returned a solubility in the series “physchem” of 150 µM (≈ 65.5 µg/mL).

For `C[C@H](CCC(=O)O)[C@H]1CC[C@H]2[C@@H]3[C@@H](O)C[C@@H]4C[C@H](O)CC[C@]4(C)[C@H]3CC[C@]12C` [URSODIOL], the Drug metabolism result in series [4] is “Metabolite_Detected”. In addition, in the series “physchem”, the solubility worked out at 7 µM (≈ 2.75 µg/mL).

Take `C[C@H](CCC(=O)O)[C@H]1CC[C@H]2[C@@H]3[C@H](O)C[C@@H]4C[C@H](O)CC[C@]4(C)[C@H]3CC[C@]12C` [CHENODIOL]: the Drug metabolism entry in series [4] is “Metabolite_Detected”.

As to `C[C@H](CCC(=O)O)[C@H]1CC[C@H]2[C@@H]3[C@H](O)C[C@@H]4C[C@H](O)CC[C@]4(C)[C@H]3C[C@H](O)[C@]12C` [CHOLIC ACID], the dose excreted in series [3] amounted to 10%.

Take `CC[C@H]1[C@@H](O)[C@@H]2[C@H](CC[C@]3(C)[C@@H]([C@H](C)CCC(=O)O)CC[C@@H]23)[C@@]2(C)CC[C@@H](O)C[C@@H]12` [OBETICHOLIC ACID]: the Drug metabolism entry in series [4] was “Metabolite_Detected”. This molecule displayed a solubility in “physchem” of 9 µM (≈ 3.79 µg/mL).
